Test results: patent US7115597B2, “Tyrosine kinase inhibitors” (Merck & Co., Inc., priority 2000, dated 2006)
Where a name gives a salt, the structure may show the parent alone.

Row | SMILES | melting point
1 | c1ccc(-c2cnc(Nc3ccncn3)s2)cc1 [Compound 1-3, (5-Phenyl-thiazol-2-yl)-pyrimidin-4-yl-amine] | > 250 °C
2 | N#Cc1cnc(Nc2cc(N3CCN(CC(=O)O)CC3)ncn2)s1 (as salt: TFA) [Compound 26-3, (4-{6-[(5-cyano-1,3-thiazol-2-yl)amino]pyrimidin-4-yl}piperazin-1-yl)acetic acid] | 285 to 287 °C (dec.)
